Assay results published in patent US10174067B2, “Type of cytidine derivative and application thereof” (priority 2014, dated 2019).
Marks after values point to notes of the source that are not given here.

How the values were obtained:
[1] = Protocol: To determine the growth inhibition effect and toxicity of the cytidine derivative samples of the present invention on the transplanted tumor of nude mice bearing colon cancer HCT-116.
The corresponding amount of test substance was taken in a 5 mL glass tube and dissolved in ethanol with a 5 mm magnetic stirrer for stirring. After dissolving completely, Cremophor EL was added with continuous stirring. The marked amount of saline was added and mixed evenly before use. The volume ratio of ethanol, Cremophor EL, and physiological saline was 5:5:90.
Varieties and lines; Balb/c Nude mice; level: SPF; sex: female.
4.2 Animal inoculation and grouping: Each nude mouse was inoculated subcutaneously with 0.1 mL of cell suspension (3×10^6 cell/mouse) at right side of hind limb in a sterile stale. When the tumor grew to about 60-150 mm^3, the nude mice with similar tumor volume and desirable shape were selected (it would be better to select single spherical shape, no irregular shape or multiple tumors grouped together) for grouping, 6 mice a group. The grouping is as follows:
The control group, namely the model control group, was injected with a mixture of ethanol, Cremophor EL, and saline (5:5:90).
Those mice were weighed three times a week.
All clinical symptoms of each animal should be recorded at the beginning of the test and during the test. The observations should be made at the same time each day.
An animal would be killed by CO2 when its weight loss was more than 20%, when it was about to die, or when its tumor volume exceeded 2800 mm^3. The tumor was separated and weighed, and the animal was autopsied and observed to evaluate and record whether there were pathological changes in the organs.
The data were expressed as Mean±SEM unless specially provided; Non-pairing T test was performed for the data between the two groups. P<0.05 was considered as significant difference.

[2] = test system: HCT-116 colon cancer xenografts; assay: Tumor growth inhibition of HCT-116 colon cancer xenografts in tumor-bearing nude mice (tumor volume, TGI %, RTV, T/C %); assay type: in vivo, Balb/c Nude mice; conditions: for T/C % (relative tumor proliferation rate): dosage 400 mg/kg (G10-G16 study);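 for T/C % (relative tumor proliferation rate): control C is the vehicle-treated model control group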
Protocol: 4.1 Tumor cells: colon cancer HCT-116 cells, purchased from the Institute of Cell Biology, Chinese Academy of Sciences. The cells were incubated by F-12 medium (containing 10% FBS) in carbon dioxide incubator at 37° C. and in saturated humidity, with 5% CO2 and 95% air in volume fraction. Before inoculation, the cells at logarithmic phase were taken, and digested with 0.25% trypsin, washed once with PBS and resuspended in PBS for counting. The cells were resuspended in serum-free medium and adjusted to about 3×10^7 cell/mL.
The grouping is as follows:
The formations of tumor at the inoculation site of each group of nude mice were observed. The diameter of tumor nodule (D) was measured three times a week with round hole ruler, and the volume of tumor nodule (V) was calculated according to the following formula: […].
Anti-tumor activity was evaluated by tumor growth inhibition rate TGI (%) and relative tumor proliferation rate T/C (%).
The relative tumor volume (RTV) was calculated as: RTV=Vt/V0, where V0 was the tumor volume when they were grouped and administered, and Vt was the tumor volume at the time of measurement.
The relative proliferation rate T/C (%) was calculated as: […].
TRTV: RTV of the treatment group; CRTV: RTV of the control group.
P<0.05 was considered as significant difference.

[3] = Day 0, G10-G16 groups, single IP 400 mg/kg
[4] = Day 0, G10-G16 groups, single IP 400 mg/kg, Mean±SEM
[5] = Day 1, G10-G16 groups, single IP 400 mg/kg, Mean±SEM
[6] = Day 2, G10-G16 groups, single IP 400 mg/kg, Mean±SEM
[7] = Day 4, G10-G16 groups, single IP 400 mg/kg, Mean±SEM
[8] = Day 7, G10-G16 groups, single IP 400 mg/kg, Mean±SEM
[9] = Day 9, G10-G16 groups, single IP 400 mg/kg, Mean±SEM
[10] = Day 11, G10-G16 groups, single IP 400 mg/kg, Mean±SEM
[11] = Day 14, G10-G16 groups, single IP 400 mg/kg, Mean±SEM
[12] = Day 16, G10-G16 groups, single IP 400 mg/kg, Mean±SEM
[13] = Day 18, G10-G16 groups, single IP 400 mg/kg, Mean±SEM
[14] = Day 21, G10-G16 groups, single IP 400 mg/kg, Mean±SEM
[15] = Day 23, G10-G16 groups, single IP 400 mg/kg, Mean±SEM
[16] = Day 25, G10-G16 groups, single IP 400 mg/kg, Mean±SEM
[17] = Day 28, G10-G16 groups, single IP 400 mg/kg, Mean±SEM
[18] = Day 30, G10-G16 groups, single IP 400 mg/kg, Mean±SEM

CCCCOC(=O)Nc1nc(=O)n([C@@H]2O[C@H](COC(=O)Cn3cnc([N+](=O)[O-])c3)C(O)C2(F)F)cc1I (stereo partly shown) [Compound G12]
Weight change rate, Day 0 [1, 3]: 0.00% | Weight of mice, Day 0 [1, 4]: 20.05 ± 0.26 g | Weight change rate, Day 1 [1, 5]: −2.59 ± 1.08% | Weight of mice, Day 1 [1, 5]: 19.53 ± 0.36 g | Weight change rate, Day 2 [1, 6]: −3.15 ± 0.93% | Weight of mice, Day 2 [1, 6]: 19.42 ± 0.29 g | Weight change rate, Day 4 [1, 7]: −1.54 ± 1.11% | Weight of mice, Day 4 [1, 7]: 19.73 ± 0.25 g | Weight change rate, Day 7 [1, 8]: −0.93 ± 1.50 % | Weight of mice, Day 7 [1, 8]: 19.85 ± 0.21 g | Weight change rate, Day 9 [1, 9]: 2.11 ± 2.28% | Weight of mice, Day 9 [1, 9]: 20.45 ± 0.32 g | Weight change rate, Day 11 [1, 10]: 3.34 ± 2.25% | Weight of mice, Day 11 [1, 10]: 20.70 ± 0.36 g | Weight change rate, Day 14 [1, 11]: 1.76 ± 2.11 % | Weight of mice, Day 14 [1, 11]: 20.38 ± 0.32 g | Weight change rate, Day 16 [1, 12]: 2.56 ± 1.91 % | Weight of mice, Day 16 [1, 12]: 20.55 ± 0.34 g | Weight change rate, Day 18 [1, 13]: 5.03 ± 2.23 % | Weight of mice, Day 18 [1, 13]: 21.05 ± 0.46 g | Weight change rate, Day 21 [1, 14]: 3.68 ± 2.13 % | Weight of mice, Day 21 [1, 14]: 20.78 ± 0.48 g | Day 22 Mortality ([1]; Day 22, single IP dose (mg/kg)): 0% | Weight change rate, Day 23 [1, 15]: 4.37 ± 1.91 % | Weight of mice, Day 23 [1, 15]: 20.92 ± 0.38 g | Weight change rate, Day 25 [1, 16]: 6.69 ± 1.87 % | Weight of mice, Day 25 [1, 16]: 21.38 ± 0.39 g | Weight change rate, Day 28 [1, 17]: 4.43 ± 0.69% | Weight of mice, Day 28 [1, 17]: 20.68 ± 0.31 g | Weight change rate, Day 30 [1, 18]: 5.67 ± 0.86% | Weight of mice, Day 30 [1, 18]: 20.93 ± 0.43 g | clinical symptoms ([1]; after single IP dose, compared with model control group): no significant differences in clinical symptoms | Day 0 (RTV) [2, 3]: 1.00 | Tumor volume, Day 0 [2, 4]: 70.49 ± 13.19* mm^3 | T/C % (relative tumor proliferation rate) ([2]; Day 0): 0.00% | Day 1 (TGI %) ([2]; Day 1, G10-G16 groups, single IP 400 mg/kg): 62.26% | Day 1 (RTV) [2, 5]: 1.12 ± 0.22 | Tumor volume, Day 1 [2, 5]: 68.13 ± 11.02** mm^3 | T/C % (relative tumor proliferation rate) ([2]; Day 1): 66.60% | Day 2 (TGI %) ([2]; Day 2, G10-G16 groups, single IP 400 mg/kg): 63.70% | Day 2 (RTV) [2, 6]: 1.28 ± 0.22 | Tumor volume, Day 2 [2, 6]: 80.54 ± 15.99** mm^3 | T/C % (relative tumor proliferation rate) ([2]; Day 2): 61.57% | Day 4 (TGI %) ([2]; Day 4, G10-G16 groups, single IP 400 mg/kg): 58.48% | Day 4 (RTV) [2, 7]: 1.80 ± 0.23 | Tumor volume, Day 4 [2, 7]: 123.31 ± 27.06** mm^3 | T/C % (relative tumor proliferation rate) ([2]; Day 4): 65.24% | Day 7 (TGI %) ([2]; Day 7, G10-G16 groups, single IP 400 mg/kg): 51.81% | Day 7 (RTV) [2, 8]: 3.07 ± 0.38 | Tumor volume, Day 7 [2, 8]: 208.41 ± 44.11** mm^3 | T/C % (relative tumor proliferation rate) ([2]; Day 7): 75.07% | Day 9 (TGI %) ([2]; Day 9, G10-G16 groups, single IP 400 mg/kg): 49.03% | Day 9 (RTV) [2, 9]: 4.37 ± 0.50 | Tumor volume, Day 9 [2, 9]: 300.88 ± 62.43* mm^3 | T/C % (relative tumor proliferation rate) ([2]; Day 9): 77.79% | Day 11 (TGI %) ([2]; Day 11, G10-G16 groups, single IP 400 mg/kg): 51.33% | Day 11 (RTV) [2, 10]: 7.11 ± 1.07 | Tumor volume, Day 11 [2, 10]: 475.09 ± 105.26** mm^3 | T/C % (relative tumor proliferation rate) ([2]; Day 11): 77.05% | Day 14 (TGI %) ([2]; Day 14, G10-G16 groups, single IP 400 mg/kg): 39.61% | Day 14 (RTV) [2, 11]: 13.07 ± 2.18 | Tumor volume, Day 14 [2, 11]: 869.70 ± 190.68* mm^3 | T/C % (relative tumor proliferation rate) ([2]; Day 14): 94.48% | Day 16 (TGI %) ([2]; Day 16, G10-G16 groups, single IP 400 mg/kg): 30.00% | Day 16 (RTV) [2, 12]: 19.45 ± 2.82 | Tumor volume, Day 16 [2, 12]: 1267.85 ± 225.13 mm^3 | T/C % (relative tumor proliferation rate) ([2]; Day 16): 112.70% | Day 18 (TGI %) ([2]; Day 18, G10-G16 groups, single IP 400 mg/kg): 19.24% | Day 18 (RTV) [2, 13]: 26.31 ± 5.44 | Tumor volume, Day 18 [2, 13]: 1613.91 ± 242.24 mm^3 | T/C % (relative tumor proliferation rate) ([2]; Day 18): 137.82% | Day 21 (TGI %) ([2]; Day 21, G10-G16 groups, single IP 400 mg/kg): 21.29% | Day 21 (RTV) [2, 14]: 32.69 ± 8.02 | Tumor volume, Day 21 [2, 14]: 1924.26 ± 257.46 mm^3 | T/C % (relative tumor proliferation rate) ([2]; Day 21): 139.66% | Day 23 (TGI %) ([2]; Day 23, G10-G16 groups, single IP 400 mg/kg): 17.69% | Day 23 (RTV) [2, 15]: 33.10 ± 7.89 | Tumor volume, Day 23 [2, 15]: 1943.90 ± 242.19 mm^3 | T/C % (relative tumor proliferation rate) ([2]; Day 23): 167.43% | Day 25 (TGI %) ([2]; Day 25, G10-G16 groups, single IP 400 mg/kg): 17.26% | Day 25 (RTV) [2, 16]: 36.50 ± 8.74 | Tumor volume, Day 25 [2, 16]: 2136.52 ± 258.58 mm^3 | T/C % (relative tumor proliferation rate) ([2]; Day 25): 168.82% | Day 28 (TGI %) ([2]; Day 28, G10-G16 groups, single IP 400 mg/kg): 24.12% | Day 28 (RTV) [2, 17]: 43.13 ± 14.83 | Tumor volume, Day 28 [2, 17]: 2040.64 ± 281.98 mm^3 | T/C % (relative tumor proliferation rate) ([2]; Day 28): 204.13% | Day 30 (TGI %) ([2]; Day 30, G10-G16 groups, single IP 400 mg/kg): 16.67% | Day 30 (RTV) [2, 18]: 49.17 ± 15.89 | Tumor volume, Day 30 [2, 18]: 2338.31 ± 292.39 mm^3 | T/C % (relative tumor proliferation rate) ([2]; Day 30): 198.17%
